From patent publication US12478610B2, “Compositions of tryptophol derivatives and 4-ethyl-phenol derivatives, and methods of using same” (B. G. Negev Technologies and Applications Ltd., at …, priority 2020, dated 2025)

Columns and labels:
human normal whole blood [1] = assay: Thromboelastography (TEG) of human normal whole blood clotting; assay type: cell-based; settings: 200 μM (mixture: 200 μM each); healthy blood; TBS control
human normal whole blood [2] = assay: as above; assay type: cell-based
Method: Clotting of whole blood (from healthy volunteers, and diabetics patients) was monitored by thromboelastography (TEG) on a TEGs 5000 Hemostasis Analyzer (Haemoscope Inc., Niles, IL) equipped with two independent channels. Thermoelastograms were recorded at 37° C. and analyzed using the TEGs Analytical Software) version 4.2.3 provided with the instrument). Reported clotting parameters are the time until the onset in the measured strength considered as clot reaction time, R; the time until achieving 20% of the maximum clot strength (clotting time), k; the rate of clot strength increase measuring the kinetics of clot formation, the α angle; and finally, the maximum clot strength, MA.
Aqueous solutions of molecules mixture in a ratio of 1:1 in deionized water were prepared in the concentration range of 400-1,800 μM. TEG cups were first filled with […] of 250 mM CaCl2, supplemented with […] of human blood sample, followed by the addition of the appropriate volume of the molecule's mixture dissolved in water to obtain the above rang of concentration or TBS as control before initiating the test. The test completed when clotting parameters obtained final values or within 45 min. Each sample was run in duplicates, n≥5 individual blood samples. TEG values of control fell within the acceptable range reported for human whole blood barring an expected decrease in clot strength (MA), as tested blood was deficient in platelets (Scarpelini et al. Biol. Res., 2009).
The inventors have studied the effect of tryptophol acetate and tyrosol acetate on human normal whole blood coagulation. The blood clotting was monitored by thromboelastography (TEG). TEG is one of the most common whole-blood viscoelastic coagulation tests used in clinical laboratories and at the point of care. TEG provides a direct information of the blood clotting kinetic and strength, with no ‘added reagents. Clotting of human normal whole blood was monitored by TEG on a TEG 5000 Hemostasis Analyzer (Haemoscope Inc., Niles, IL) equipped with two independent channels. Thermoelastograms were recorded at 37° C. and analyzed using the TEG Analytical Software (version 4.2.3 provided using the instrument). Reported clotting parameters are the time till onset in the measured strength considered as the clot reaction time, R; the time till achieving 20% of the maximum clot strength (clotting time), k; the rate of the clot strength increase measuring the kinetics of clot formation, the α angle; and lastly, the maximum clot strength, MA (see table 1). […]

[3] = 400 μM (mixture: 400 μM each), healthy blood, TBS control

## CC(=O)OCCc1c[nH]c2ccccc12 [compound 203, Tryptophol acetate]
Human normal whole blood [1]
  K: 2.3 ± 0.1 min
  MA (mm): 60.5 ± 1.5 mm
  R: 6.2 ± 0.2 min
  α (degree): 56.8 ± 2.7 degree

## NCCc1c[nH]c2ccc(O)cc12 [Serotonin, serotonin]
Human normal whole blood [1]
  K: 2.4 ± 0.2 min
  MA (mm): 60 ± 0.4 mm
  R: 6.8 ± 0.9 min
  α (degree): 58.2 ± 0.3 degree
Human normal whole blood [2]; [3]
  K: 1.5 ± 0.2 min
  MA (mm): 61.3 ± 1.7 mm
  R (min): 5.2 + 0.4 min
  α (degree): 62.4 ± 0.9 degree
Human normal whole blood [2]; single substance at a similar concentration, whole blood
  effect on the TEG parameters as seen with the mixture at 200 μM each: did not show a similar effect

## CC(=O)OCCc1ccc(O)cc1 [compound 180, Tyrosol acetate]
Human normal whole blood [1]
  K: 1.8 min
  MA (mm): 59.0 mm
  R: 6.4 min
  α (degree): 59.6 degree
